Laboratory results from ChEMBL document CHEMBL2311314 (J Med Chem, 2013).
Values after ≈ are worked out from the molar mass of the structure shown. Active and inactive are the calls of the source. The calls are words filed in the database; no cut-off is given here.

What was measured:
[1] = biological target: Replicase polyprotein 1a (Severe acute respiratory syndrome-related coronavirus) (UniProt P0C6U8); assay: Inhibition of SARS-CoV 3CLpro expressed in Escherichia coli BL21 (DE3) at 100 uM by FRET assay in presence of 0.01% Triton X-100
[2] = Aqueous solubility of the compound in PBS buffer at pH 7.4 after 4 hrs by HPLC with UV detection analysis; type: physicochemical
Replicase polyprotein 1a [3] = biological target: T1, Replicase polyprotein 1a (Severe acute respiratory syndrome-related coronavirus, UniProt P0C6U8); assay: (§1) Inhibition of SARS-CoV 3CLpro expressed in Escherichia coli BL21 (DE3) by FRET assay
Murine coronavirus [4] = assay: Inhibition of mouse coronavirus 3CLpro expressed in Escherichia coli BL21 (DE3) at 100 uM by FRET assay in absence of 0.01% Triton X-100
Human coronavirus HKU1 [5] = assay: Inhibition of human coronavirus HKU1 3CLpro expressed in Escherichia coli BL21 (DE3) at 100 uM by FRET assay in absence of 0.01% Triton X-100
[6] = biological target: Replicase polyprotein 1a (Severe acute respiratory syndrome-related coronavirus) (UniProt P0C6U8); assay: Inhibition of SARS-CoV 3CLpro expressed in Escherichia coli BL21 (DE3) at 100 uM by FRET assay in absence of 0.01% Triton X-100
Replicase polyprotein 1a [7] = biological target: T1, Replicase polyprotein 1a; assay: Inhibition of SARS-CoV 3CLpro expressed in Escherichia coli BL21 (DE3) after 2 hrs by FRET assay
Murine coronavirus [8] = assay: Inhibition of mouse coronavirus 3CLpro expressed in Escherichia coli BL21 (DE3) at 100 uM by FRET assay in presence of 0.01% Triton X-100
Human coronavirus HKU1 [9] = assay: Inhibition of human coronavirus HKU1 3CLpro expressed in Escherichia coli BL21 (DE3) at 100 uM by FRET assay in presence of 0.01% Triton X-100
[10] = Cytotoxicity against african green monkey Vero E6 cells assessed as cell death at […] after 48 hrs by CellTiter-Glo luminescent cell viability assay; type: cell-based; settings: chlorocebus sabaeus
[11] = Cytotoxicity against african green monkey Vero E6 cells after 48 hrs by CellTiter-Glo luminescent cell viability assay; type: cell-based; settings: chlorocebus sabaeus
[12] = Inhibition of SARS-CoV PL-pro after 10 mins by luminescence assay; set-up: species or system Severe acute respiratory syndrome-related coronavirus
[13] = biological target: Replicase polyprotein 1a (Severe acute respiratory syndrome-related coronavirus) (UniProt P0C6U8); assay: as §1
[14] = Ratio of EC50 for SARS-CoV infected in african green monkey Vero E6 cells to Ki for SARS-CoV 3CLpro; set-up: species or system Severe acute respiratory syndrome-related coronavirus

| Compound | inhibition [1] | also measured |
| --- | --- | --- |
| CC(C)(C)NC(=O)C(c1cccnc1)N(C(=O)C1CCCO1)c1ccc(C(C)(C)C)cc1 (stereo not drawn) | > 49% | – |
| CC(C)(C)NC(=O)[C@@H](c1cccnc1)N(C(=O)c1ccco1)c1ccc(C(C)(C)C)cc1 | – | solubility at 4 h [2]: 219 µM (≈ 94.9 µg/mL) |
| CC(C)(C)NC(=O)C(c1c[nH]nn1)N(C(=O)c1ccco1)c1ccc(C(C)(C)C)cc1 (stereo not drawn) | 23% | – |
| CC(C)(C)NC(=O)C(c1cn[nH]c1)N(C(=O)c1ccco1)c1ccc(C(C)(C)C)cc1 (stereo not drawn) | 16% | – |
| COc1cccc(C(=O)N(c2ccc(C(C)(C)C)cc2)C(C(=O)NC(C)(C)C)c2cccnc2)c1 (stereo not drawn) | > 49% | – |
| CC(C)(C)NC(=O)C(c1cccnc1)N(C(=O)C1=NC=NC1)c1ccc(C(C)(C)C)cc1 (stereo not drawn) | > 49% | IC50 (Replicase polyprotein 1a [3]): 6 µM |
| CC(C)(C)NC(=O)C(c1cccnc1)N(C(=O)c1ccc(O)cc1)c1ccc(C(C)(C)C)cc1 (stereo not drawn) | > 49% | – |
| CC(C)(C)NC(=O)C(c1cccnc1)N(C(=O)CO)c1ccc(C(C)(C)C)cc1 (stereo not drawn) | > 49% | – |
| CC(C)(C)NC(=O)C(c1ccccn1)N(C(=O)c1ccco1)c1ccc(C(C)(C)C)cc1 (stereo not drawn) | < 15% | – |
| CC(C)(C)NC(=O)C(c1cccnc1)N(C(=O)c1ncco1)c1ccc(C(C)(C)C)cc1 (stereo not drawn) | > 49% | IC50 (Replicase polyprotein 1a [3]): 47 µM |
| CC(C)(C)NC(=O)C(c1cccnc1)N(C(=O)CC(F)(F)F)c1ccc(C(C)(C)C)cc1 (stereo not drawn) | 57% | – |
| CC(C)(C)NC(=O)C(c1cccnc1)N(C(=O)c1ncc[nH]1)c1ccc(C(C)(C)C)cc1 (stereo not drawn) | 49% | – |
| Cc1ccc(C(C(=O)NC(C)(C)C)N(C(=O)c2ccco2)c2ccc(C(C)(C)C)cc2)cn1 (stereo not drawn) | < 15% | – |
| CCN(CC)c1ccc(C(=O)On2nnc3ccccc32)cc1 | – | IC50 (Replicase polyprotein 1a [3]): 11.1 µM |
| CN(C)CCCSc1ccccc1NC(=O)/C=C/c1ccccc1 [CINANSERIN] | inactive | inhibition (Murine coronavirus [4]): inactive; inhibition (Human coronavirus HKU1 [5]): inactive; inhibition [6]: inactive; IC50 (Replicase polyprotein 1a [7]): 5 µM; inhibition (Murine coronavirus [8]): inactive; inhibition (Human coronavirus HKU1 [9]): inactive; Activity [10]: > 90%; CC50 at 48 h [11]: 31 µM; CC90 at 48 h [11]: 66 µM |
| CC(C)(C)NC(=O)C(c1cccnc1)N(C(=O)c1cccnc1)c1ccc(C(C)(C)C)cc1 (stereo not drawn) | > 49% | – |
| CCC(C)c1ccc(N(C(=O)c2ccco2)C(C(=O)NC2CCCC2)c2cccnc2)cc1 (stereo not drawn) | – | IC50 (Replicase polyprotein 1a [3]): 2.2 µM; IC50 [12]: 34 µM |
| Cc1ccoc1C(=O)N(c1ccc(C(C)(C)C)cc1)C(C(=O)NC(C)(C)C)c1cccnc1 (stereo not drawn) | 53% | – |
| CC(C)(C)NC(=O)C(c1cccnc1)N(C(=O)c1ccco1)C1CC1 (stereo not drawn) | – | inhibition [13]: inactive |
| CC(C)(C)NC(=O)C(c1cccnc1)N(C(=O)Cc1ccccc1)c1ccc(C(C)(C)C)cc1 (stereo not drawn) | > 49% | – |
| CC(C)(C)NC(=O)C(c1cccnc1)N(C(=O)c1cnco1)c1ccc(C(C)(C)C)cc1 (stereo not drawn) | > 49% | IC50 (Replicase polyprotein 1a [3]): 39 µM |
| COc1ccc(C(=O)N(c2ccc(C(C)(C)C)cc2)C(C(=O)NC(C)(C)C)c2cccnc2)cc1 (stereo not drawn) | > 49% | – |
| CC(C)c1ccc(N(C(=O)c2ccco2)C(C(=O)NC(C)(C)C)c2cccnc2)cc1 (stereo not drawn) | – | IC50 (Replicase polyprotein 1a [3]): 28.1 µM |
| CC(C)(C)NC(=O)C(c1cccnc1)N(C(=O)c1ccncc1)c1ccc(C(C)(C)C)cc1 (stereo not drawn) | > 49% | – |
| CC[C@H](NC(=O)[C@@H](NC(=O)OCc1ccccc1)[C@@H](C)OC(C)(C)C)C(=O)N[C@H](C=O)C[C@@H]1CCNC1=O | – | Ratio [14]: 11.5 |
| CC(C)(C)NC(=O)C(c1cccnc1)N(C(=O)c1ccco1)c1ccc(F)cc1 (stereo not drawn) | – | inhibition [13]: inactive |

| Compound | inhibition [1] | also measured |
| --- | --- | --- |
| C=C(Cc1cccc(C)c1)C1=CC=C(c2ccc(C)cc2)C1 | – | IC50 (Replicase polyprotein 1a [3]): 13 µM |
| CC(C)(C)NC(=O)C(c1ccncc1)N(C(=O)c1ccco1)c1ccc(C(C)(C)C)cc1 (stereo not drawn) | – | IC50 (Replicase polyprotein 1a [3]): 45 µM |
| CC(C)(C)NC(=O)C(c1cccnc1)N(C(=O)c1ccccc1O)c1ccc(C(C)(C)C)cc1 (stereo not drawn) | > 49% | – |
| CC(C)(C)NC(=O)C(c1cccnc1)N(C(=O)c1ccc(F)cc1)c1ccc(C(C)(C)C)cc1 (stereo not drawn) | > 49% | – |
| O=C(Oc1cncc(Br)c1)c1cccs1 | – | IC50 (Replicase polyprotein 1a [3]): 0.5 µM |
| CC(C)(C)NC(=O)C(c1cccnc1)N(C(=O)c1ccc(Cl)o1)c1ccc(C(C)(C)C)cc1 (stereo not drawn) | > 49% | IC50 (Replicase polyprotein 1a [3]): 5.2 µM |
| CC(C)(C)NC(=O)C(c1cccnc1)N(C(=O)c1ccc[nH]1)c1ccc(C(C)(C)C)cc1 (stereo not drawn) | > 49% | – |
| CC(C)(C)NC(=O)C(c1cccnc1)N(C(=O)c1cc[nH]n1)c1ccc(C(C)(C)C)cc1 (stereo not drawn) | 56% | – |
| CC(C)CC(=O)N(c1ccc(C(C)(C)C)cc1)C(C(=O)NC(C)(C)C)c1cccnc1 (stereo not drawn) | > 49% | – |
| COc1ccccc1C(=O)N(c1ccc(C(C)(C)C)cc1)C(C(=O)NC(C)(C)C)c1cccnc1 (stereo not drawn) | > 49% | – |
| CC(C)(C)NC(=O)C(c1cccnc1)N(C(=O)Cc1cnc[nH]1)c1ccc(C(C)(C)C)cc1 (stereo not drawn) | > 49% | – |
| CC(C)(C)NC(=O)C(c1cccnc1)N(C(=O)c1ccccn1)c1ccc(C(C)(C)C)cc1 (stereo not drawn) | > 49% | – |
| CC(C)(C)NC(=O)C(c1c[nH]cn1)N(C(=O)c1ccco1)c1ccc(C(C)(C)C)cc1 (stereo not drawn) | 23% | – |
| COCC(=O)N(c1ccc(C(C)(C)C)cc1)C(C(=O)NC(C)(C)C)c1cccnc1 (stereo not drawn) | > 49% | – |
| CC(C)(C)NC(=O)C(c1cccnc1)N(C(=O)c1ccc(Cl)cc1)c1ccc(C(C)(C)C)cc1 (stereo not drawn) | > 49% | – |
| CC(C)(C)NC(=O)C(c1cccnc1)N(C(=O)c1cn[nH]c1)c1ccc(C(C)(C)C)cc1 (stereo not drawn) | > 49% | – |
| Cn1cnc(C(=O)N(c2ccc(C(C)(C)C)cc2)C(C(=O)NC(C)(C)C)c2cccnc2)c1 (stereo not drawn) | > 49% | IC50 (Replicase polyprotein 1a [3]): 75 µM |
| CC(C)(C)NC(=O)C(c1cccnc1)N(C(=O)c1cccc(O)c1)c1ccc(C(C)(C)C)cc1 (stereo not drawn) | > 49% | – |
| CC(C)(C)NC(=O)C(c1cnccn1)N(C(=O)c1ccco1)c1ccc(C(C)(C)C)cc1 (stereo not drawn) | – | IC50 (Replicase polyprotein 1a [3]): 5.5 µM |
| CC(C)(C)NC(=O)C(c1ccnnc1)N(C(=O)c1ccco1)c1ccc(C(C)(C)C)cc1 (stereo not drawn) | – | IC50 (Replicase polyprotein 1a [3]): 10 µM |
| CC(C)(C)NC(=O)C(c1cccnc1)N(C(=O)c1ncccn1)c1ccc(C(C)(C)C)cc1 (stereo not drawn) | > 49% | – |
| CC(C)(C)NC(=O)C(c1cccnc1)N(C(=O)c1cccs1)c1ccc(C(C)(C)C)cc1 (stereo not drawn) | > 49% | IC50 (Replicase polyprotein 1a [3]): 50 µM |
| Cc1ccc(C(=O)N(c2ccc(C(C)(C)C)cc2)C(C(=O)NC(C)(C)C)c2cccnc2)o1 (stereo not drawn) | 55% | – |
| CC(C)(C)NC(=O)C(c1ccsc1)N(C(=O)c1ccco1)c1ccc(C(C)(C)C)cc1 (stereo not drawn) | 11% | inhibition [13]: inactive |
| CC(C)(C)NC(=O)C(c1cc[nH]n1)N(C(=O)c1ccco1)c1ccc(C(C)(C)C)cc1 (stereo not drawn) | < 15% | – |
